Test results reported in patent publication US4180436A, “Antibacterial compounds and process for production thereof” (Kyowa Hakko Kogyo Co., Ltd., priority 1977, dated 1979).
≈ marks a conversion by molar mass, not a printed value. Entries after “also recorded” stand apart in the source; their conditions may differ. Each block holds one compound with its values, some of them ahead of it.

Tests used:
[1] = system: Bacilus subtilis ATCC 10707; assay: antibacterial activity by agar dilution method; type: cell-based; conditions: pH 7.0
Source text: (§1) The antibacterial activity of the compound S551-II-A against various microorganism by agar dilution method (pH 7.0) is shown in Table 2.

[2] = system: Escherichia coli ATCC 3655; assay: antibacterial activity by agar dilution method; type: cell-based; conditions: ATCC3655, pH 7.0
Source text: as §1

[3] = system: Klebsiella pneumoniae ATCC 10031; assay: antibacterial activity by agar dilution method; type: cell-based; conditions: ATCC10031, pH 7.0
Source text: as §1

[4] = system: Proteus vulgaris ATCC 6897; assay: antibacterial activity by agar dilution method; type: cell-based; conditions: ATCC6897, pH 7.0
Source text: as §1

[5] = system: Staphylococcus aureus ATCC 6538P; assay: antibacterial activity by agar dilution method; type: cell-based; conditions: ATCC6538P, pH 7.0
Source text: as §1

Solubilities = type: physicochemical; conditions: solvents named in the value
[6] = system: Alternaria solani IFO 5924; assay: antibacterial activity by disc method; type: cell-based; conditions: IFO5924, pH: no adjustment
Source text: (§2) The antibacterial activity of the compound S551-II against various microorganisms by disc method (pH: no adjustment) is shown in the following Table 1.

[7] = system: Aspergillus niger ATCC 6275; assay: antibacterial activity by disc method; type: cell-based; conditions: ATCC6275, pH: no adjustment
Source text: as §2

[8] = system: Aspergillus niger IAM 2026; assay: antibacterial activity by disc method; type: cell-based; conditions: IAM2026, pH: no adjustment
Source text: as §2

[9] = system: Aspergillus oryzae NRRL 692; assay: antibacterial activity by disc method; type: cell-based; conditions: NRRL692, pH: no adjustment
Source text: as §2

[10] = system: Bacillus subtilis IAM 1026; assay: antibacterial activity by disc method; type: cell-based; conditions: IAM1026, pH: no adjustment
Source text: as §2

Bacillus subtilis NA 64 = assay: antibacterial activity by disc method; type: cell-based; conditions: NA64, pH: no adjustment
Source text: as §2

[11] = system: Bacillus subtilis PCI 219; assay: antibacterial activity by disc method; type: cell-based; conditions: PCI219, pH: no adjustment
Source text: as §2

[12] = system: Candida albicans IAM 4888; assay: antibacterial activity by disc method; type: cell-based; conditions: IAM4888, pH: no adjustment
Source text: as §2

[13] = system: Chaetomium globosum ATCC 6025; assay: antibacterial activity by disc method; type: cell-based; conditions: ATCC6025, pH: no adjustment
Source text: as §2

[14] = system: Cladosporium herbarum Link Fr IAM 5059; assay: antibacterial activity by disc method; type: cell-based; conditions: IAM5059, pH: no adjustment
Source text: as §2

Diplococcus pneumoniae = assay: antibacterial activity by disc method; type: cell-based; conditions: Streptococcus pneumoniae, pH: no adjustment
Source text: as §2

[15] = system: Dusariium moniliforme IAM 5062; assay: antibacterial activity by disc method; type: cell-based; conditions: pH: no adjustment
Source text: as §2

[16] = system: Escherichia coli ATCC 3655; assay: antibacterial activity by disc method; type: cell-based; conditions: ATCC3655, pH: no adjustment
Source text: as §2

[17] = system: Escherichia coli IAM 1268; assay: antibacterial activity by disc method; type: cell-based; conditions: IAM1268, pH: no adjustment
Source text: as §2

Irycoderma T-1 ATCC 9645 = assay: antibacterial activity by disc method; type: cell-based
Source text: as §2

[18] = system: Klebsiella pneumoniae 348; assay: antibacterial activity by disc method; type: cell-based; conditions: pH: no adjustment
Source text: as §2

[19] = system: Mucor spinescens IAM 6071; assay: antibacterial activity by disc method; type: cell-based; conditions: IAM6071, pH: no adjustment
Source text: as §2

[20] = system: Myrothecium verrucaria IAM 5063; assay: antibacterial activity by disc method; type: cell-based; conditions: Albifimbria verrucaria, IAM5063, pH: no adjustment
Source text: as §2

[21] = system: Penicillium chrysogenum IAM 7142; assay: antibacterial activity by disc method; type: cell-based; conditions: IAM7142, pH: no adjustment
Source text: as §2

[22] = system: Penicillium chrysogenum Q 176; assay: antibacterial activity by disc method; type: cell-based; conditions: Q176, pH: no adjustment
Source text: as §2

[23] = system: Proteus vulgaris HX19 IAM 1025; assay: antibacterial activity by disc method; type: cell-based; conditions: IAM1025, pH: no adjustment
Source text: as §2

[24] = system: Pseudomonas aeruginosa IAM 1156; assay: antibacterial activity by disc method; type: cell-based; conditions: IAM1156, pH: no adjustment
Source text: as §2

[25] = system: Pseudomonas fluorescens ATCC 27; assay: antibacterial activity by disc method; type: cell-based; conditions: ATCC27, pH: no adjustment
Source text: as §2

[26] = system: Saccharomyces cerevisiae IAM 4485; assay: antibacterial activity by disc method; type: cell-based; conditions: IAM4485, pH: no adjustment
Source text: as §2

Saccharomyces rouxii M-9 = assay: antibacterial activity by disc method; type: cell-based; conditions: Zygosaccharomyces rouxii, M9, pH: no adjustment
Source text: as §2

Salmonella enteritidis = assay: antibacterial activity by disc method; type: cell-based; conditions: Salmonella enterica, pH: no adjustment
Source text: as §2

Sarcina lutea IAM 1099 = assay: antibacterial activity by disc method; type: cell-based; conditions: Micrococcus luteus, IAM1099, pH: no adjustment
Source text: as §2

[27] = system: Serratia marcescens IAM 1022; assay: antibacterial activity by disc method; type: cell-based; conditions: IAM1022, pH: no adjustment
Source text: as §2

Shigella sonnei E23 = assay: antibacterial activity by disc method; type: cell-based
Source text: as §2

[28] = system: Staphylococcus aureus FAD 209P; assay: antibacterial activity by disc method; type: cell-based; conditions: pH: no adjustment
Source text: as §2

[29] = system: Trycophyton mentagrophytes IAM 5064; assay: antibacterial activity by disc method; type: cell-based; conditions: pH: no adjustment
Source text: as §2

gypseum IFO 5948 = assay: antibacterial activity by disc method; type: cell-based; conditions: pH: no adjustment
Source text: as §2

MIC [1]: 200 µg/mL (≈ 858 µM) | MIC [2]: 500 µg/mL (≈ 2140 µM) | MIC [3]: 200 µg/mL (≈ 858 µM) | MIC [4]: 25 µg/mL (≈ 107 µM) | MIC [5]: 200 µg/mL (≈ 858 µM)
SMILES: O=C(/C=C/c1cc[nH]c1)OC1=C(O)CCC1=O [Compound S551-II-A]
Solubilities (Solubilities): soluble in acetone, dimethylsulfoxide and alkaline solution; also recorded: slightly soluble in methanol; also recorded: insoluble in benzene, chloroform ethylether and hexane

SMILES: CC(=O)OC1CC(/C=C/C(=O)OC2=C(O)CCC2=O)=CN1 (centres unmarked) [Compound S551-II]
MIC [6]: 8 µg/mL (≈ 27.3 µM) | MIC [7]: 1000 µg/mL (≈ 3410 µM) | MIC [8]: 250 µg/mL (≈ 852 µM) | MIC [9]: 62.5 µg/mL (≈ 213 µM) | MIC [10]: 31.2 µg/mL (≈ 106 µM) | MIC (Bacillus subtilis NA 64): 62.5 µg/mL (≈ 213 µM) | MIC [11]: 62.5 µg/mL (≈ 213 µM) | MIC [12]: > 1000 µg/mL | MIC [13]: 500 µg/mL (≈ 1700 µM) | MIC [14]: 31.2 µg/mL (≈ 106 µM) | MIC (Diplococcus pneumoniae): 1000 µg/mL (≈ 3410 µM) | MIC [15]: 125 µg/mL (≈ 426 µM) | MIC [16]: 500 µg/mL (≈ 1700 µM) | MIC [17]: 1000 µg/mL (≈ 3410 µM) | MIC (Irycoderma T-1 ATCC 9645): 16 µg/mL (≈ 54.6 µM) | MIC [18]: > 1000 µg/mL | MIC [19]: 500 µg/mL (≈ 1700 µM) | MIC [20]: 125 µg/mL (≈ 426 µM) | MIC [21]: 125 µg/mL (≈ 426 µM) | MIC [22]: 62.5 µg/mL (≈ 213 µM) | MIC [23]: > 1000 µg/mL | MIC [24]: > 1000 µg/mL | MIC [25]: > 1000 µg/mL | MIC [26]: 1000 µg/mL (≈ 3410 µM) | MIC (Saccharomyces rouxii M-9): 100 µg/mL (≈ 341 µM) | MIC (Salmonella enteritidis): > 1000 µg/mL | MIC (Sarcina lutea IAM 1099): 125 µg/mL (≈ 426 µM) | MIC [27]: > 1000 µg/mL | MIC (Shigella sonnei E23): > 100 µg/mL | MIC [28]: 62.5 µg/mL (≈ 213 µM) | MIC [29]: 4 µg/mL (≈ 13.6 µM) | MIC (gypseum IFO 5948): 125 µg/mL (≈ 426 µM)
